Experimental data from patent US7638531B2, “Phenoxypiperidines and analogs thereof useful as histamine H3 antagonists” (Schering Corporation, priority 2005, dated 2009).

How the values were obtained:
[1] = test system: mice fed a high-fat diet; test: Diet-induced obesity in mice; type: in vivo; conditions: high-fat diet days 0 to 4, 10 mg/kg by gavage once daily for four days, versus vehicle control
Method: Lean mice (male, approx. 5 weeks of age, purchased from The Jackson Laboratory, Bar Harbor, Me.) were maintained in individual cages at 22° C. on a 12:12 hr light/dark cycle. The “treated” mice (N=12) were administered a Thiazole Derivative (10 mg/kg) by gavage once daily for four consecutive days. Control mice (N=12) were administered vehicle only, once daily for four days. Both control and treated mice were fed a high-fat diet from days 0 to 4 and body weight and food intake was monitored daily. The percent inhibition for weight gain and food intake was calculated by comparing the increase in weight gain and food intake in the treated mice to the increase in weight gain and food intake in the control mice.

[2] = target: T1, H3 receptors, guinea pig brain (Cavia porcellus, UniProt Q9JI35); test: H3-receptor binding assay, guinea pig brain; conditions: guinea pig brain membranes; 3 nM [3H]R-α-methyl histamine or [3H]Nα-methyl histamine, 30° C., 30 min
T1 construct: The source of the H3 receptors in this experiment was guinea pig brain; from tissue; host or cells: guinea pig brain membranes
T1 sequence (Q9JI35 whole entry): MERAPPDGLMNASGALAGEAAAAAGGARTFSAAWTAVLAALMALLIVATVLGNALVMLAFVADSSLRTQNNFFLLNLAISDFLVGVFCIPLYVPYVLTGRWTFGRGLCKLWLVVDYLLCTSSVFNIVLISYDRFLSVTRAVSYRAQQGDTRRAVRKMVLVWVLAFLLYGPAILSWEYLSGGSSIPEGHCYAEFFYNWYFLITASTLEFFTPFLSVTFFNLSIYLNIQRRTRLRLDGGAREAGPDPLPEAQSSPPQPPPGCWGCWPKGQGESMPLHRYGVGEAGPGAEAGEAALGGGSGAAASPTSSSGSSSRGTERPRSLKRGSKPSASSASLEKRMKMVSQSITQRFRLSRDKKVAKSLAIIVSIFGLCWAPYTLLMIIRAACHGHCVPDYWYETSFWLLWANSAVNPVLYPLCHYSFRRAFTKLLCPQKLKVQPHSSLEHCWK
Method: (§1) The source of the H3 receptors in this experiment was guinea pig brain. Alternatively, the source of H3 receptors was recombinant human receptor, expressed in HEK-293 (human embryonic kidney) cells.
The animals weighed 400-600 g. The brain tissue was homogenized with a solution of 50 mM Tris, pH 7.5. The final concentration of tissue in the homogenization buffer was 10% w/v. The homogenates were centrifuged at 1,000×g for 10 min. in order to remove clumps of tissue and debris. The resulting supernatants were then centrifuged at 50,000×g for 20 min. in order to sediment the membranes, which were next washed three times in homogenization buffer (50,000×g for 20 min. each). The membranes were frozen and stored at −70° C. until needed.
All compounds to be tested were dissolved in DMSO and then diluted into the binding buffer (50 mM Tris, pH 7.5) such that the final concentration was 2 μg/ml with 0.1% DMSO. Membranes were then added (400 μg of protein, 5 μg in the case of recombinant human receptor) to the reaction tubes. The reaction was started by the addition of 3 nM [^3H]R-α-methyl histamine (8.8 Ci/mmol) or 3 nM [^3H]N^α-methyl histamine (80 Ci/mmol) and continued under incubation at 30° C. for 30 min. Bound ligand was separated from unbound ligand by filtration, and the amount of radioactive ligand bound to the membranes was quantitated by liquid scintillation spectrometry. […]

[3] = target: T2, recombinant human H3 receptor, expressed in HEK-293 cells (Homo sapiens, UniProt Q9Y5N1); test: H3-receptor binding assay, recombinant human receptor; conditions: recombinant human receptor in HEK-293 membranes; 3 nM [3H]R-α-methyl histamine or [3H]Nα-methyl histamine, 30° C., 30 min
T2 construct: expressed in transfected cells; host or cells: HEK-293 (human embryonic kidney) cells
T2 sequence (Q9Y5N1 whole entry): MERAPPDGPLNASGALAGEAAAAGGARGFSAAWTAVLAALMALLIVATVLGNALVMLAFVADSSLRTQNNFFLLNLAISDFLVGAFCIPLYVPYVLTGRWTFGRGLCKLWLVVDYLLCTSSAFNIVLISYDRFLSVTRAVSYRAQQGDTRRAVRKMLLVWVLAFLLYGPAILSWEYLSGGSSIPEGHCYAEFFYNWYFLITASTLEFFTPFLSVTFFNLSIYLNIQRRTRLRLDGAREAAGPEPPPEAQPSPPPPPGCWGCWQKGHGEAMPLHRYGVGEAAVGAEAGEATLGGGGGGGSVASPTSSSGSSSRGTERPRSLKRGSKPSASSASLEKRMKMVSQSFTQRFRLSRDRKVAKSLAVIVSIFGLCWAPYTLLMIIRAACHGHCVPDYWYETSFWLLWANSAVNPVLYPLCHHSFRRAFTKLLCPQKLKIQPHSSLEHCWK
Method: as §1
All compounds to be tested were dissolved in DMSO and then diluted into the binding buffer (50 mM Tris, pH 7.5) such that the final concentration was 2 μg/ml with 0.1% DMSO. Membranes were then added (400 μg of protein, 5 μg in the case of recombinant human receptor) to the reaction tubes. The reaction was started by the addition of 3 nM [^3H]R-α-methyl histamine (8.8 Ci/mmol) or 3 nM [^3H]N^α-methyl histamine (80 Ci/mmol) and continued under incubation at 30° C. for 30 min. Bound ligand was separated from unbound ligand by filtration, and the amount of radioactive ligand bound to the membranes was quantitated by liquid scintillation spectrometry. All incubations were performed in duplicate and the standard error was always less than 10%. Compounds that inhibited more than 70% of the specific binding of radioactive ligand to the receptor were serially diluted to determine a Ki (nM).

SMILES	Food intake Inhibition (%) [1] [%]	Weight Gain Inhibition (%) [1] [%]	Ki [2] [nM]	Ki [3] [nM]
Nc1cc(CN2CCC(Oc3ccc(-n4c(-c5ccccn5)nc5cccnc54)cc3)CC2)ccn1 [Compound 4A]	15.9	74.1	–	–
CN1CCN(c2ccc(OC3CCN(Cc4ccnc(N)c4)CC3)cc2)CC1 [Compound 22A]	11.2	42.4	–	–
Nc1cc(CN2CCC(Oc3ccc(-n4c(-c5ncccc5F)nc5cccnc54)cc3)CC2)ccn1 [Compound 69A]	–	–	18	0.6
Nc1cc(CN2CCC(Oc3ccc(-n4c(C(F)(F)C(F)(F)F)nc5cccnc54)cc3)CC2)ccn1 [Compound 36A]	12.7	58.0	–	–
